Measurements from ChEMBL document CHEMBL4421722, “Inhibitors of protein prenyltransferases” (2013).

Species on record: Rattus norvegicus
Assay: Inhibition of rat recombinant geranylgeranyltransferase type I expressed in Escherichia coli assessed as residual enzyme activity for geranylgeranylation of K-Ras4B at 50 uM incubated for 30 mins in presence of [3H]GGPP by scintillation counting assay relative to control

Row | SMILES | Activity
1 | Cc1ccc(S(=O)(=O)N2[C@@H](c3cccc(F)c3)C(C(=O)O)=CC[C@H]2c2ccccc2)cc1 | 63.7%
2 | Cc1ccc([C@@H]2CC=C(C(=O)O)[C@H](c3cccc(F)c3)N2S(C)(=O)=O)cc1 | 75%
3 | Cc1ccc([C@@H]2CC=C(C(=O)O)[C@H](c3ccc(F)cc3)N2S(=O)(=O)c2ccc(C)cc2)cc1 | 67.7%
4 | Cc1ccc([C@@H]2CC=C(C(=O)O)[C@H](c3ccc(F)cc3)N2S(=O)(=O)c2ccc(Cl)cc2)cc1 | 60%
5 | Cc1ccc([C@@H]2CC=C(C(=O)O)[C@H](c3ccc(Br)cc3)N2S(=O)(=O)c2ccccc2C)cc1 | 82%
6 | Cc1ccc(S(=O)(=O)N2[C@@H](c3ccc(F)cc3)C(C(=O)O)=CC[C@H]2c2ccc(F)cc2)cc1 | 66.8%
7 | CCc1ccc([C@@H]2CC=C(C(=O)O)[C@H](c3ccc(F)cc3)N2S(=O)(=O)c2ccc(C)cc2)cc1 | 55.2%
8 | COc1ccc([C@@H]2CC=C(C(=O)O)[C@H](c3ccc(C)cc3)N2S(=O)(=O)c2ccc(C)cc2)cc1OC | 89.3%
9 | Cc1ccc(S(=O)(=O)N2[C@@H](c3ccc(Br)cc3)C(C(=O)O)=CC[C@H]2c2cccc(Cl)c2)cc1 | 69.2%
10 | CC(=O)C1=CC[C@@H](c2cccc(Cl)c2)N(S(=O)(=O)c2ccc(C)cc2)C1 | 86%
11 | Cc1ccc([C@@H]2CC=C(C(=O)O)[C@H](c3ccc(Cl)cc3)N2S(C)(=O)=O)cc1 | 79.1%
12 | Cc1ccc([C@@H]2CC=C(C(=O)O)[C@H](c3cccc(C)c3)N2S(=O)(=O)c2ccc(Cl)cc2)cc1 | 89.9%
13 | Cc1ccc(S(=O)(=O)N2[C@@H](c3ccc(C(C)(C)C)cc3)C(C(=O)O)=CC[C@H]2c2cccs2)cc1 | 68.1%
14 | Cc1ccc([C@@H]2CC=C(C(=O)O)[C@H](c3cccc(Br)c3)N2S(=O)(=O)c2ccccc2)cc1 | 67.2%
15 | Cc1ccc(S(=O)(=O)N2[C@@H](c3ccc(F)cc3)C(C(=O)O)=CC[C@H]2c2ccc(Cl)cc2)cc1 | 62%
16 | COc1ccc([C@@H]2CC=C(C(=O)O)[C@H](c3cccc(F)c3)N2S(=O)(=O)c2ccccc2C)cc1 | 86.6%
17 | Cc1ccc([C@H]2C(C(=O)O)=CC[C@@H](c3ccc(C)cc3)N2S(=O)(=O)c2ccc(Cl)cc2)cc1 | 53%

Row | SMILES | Activity
18 | Cc1ccccc1S(=O)(=O)N1[C@@H](c2ccc(C(C)(C)C)cc2)C(C(=O)O)=CC[C@H]1c1ccc(Cl)cc1 | 97.3%
19 | Cc1ccc(S(=O)(=O)N2[C@@H](c3ccc(Br)cc3)C(C(=O)O)=CC[C@H]2c2cccs2)cc1 | 71.2%
20 | Cc1ccc([C@H]2C(C(=O)O)=CC[C@@H](c3ccc(Cl)cc3)N2S(C)(=O)=O)cc1 | 90.6%
21 | Cc1ccc(S(=O)(=O)N2[C@@H](c3cccc(C)c3)C(C(=O)O)=CC[C@H]2c2cccc(Cl)c2)cc1 | 46.9%
22 | Cc1ccc([C@@H]2CC=C(C(=O)O)[C@H](c3ccc(C(C)(C)C)cc3)N2S(=O)(=O)c2ccc(C)cc2)cc1 | 85.5%
23 | Cc1ccc(S(=O)(=O)N2[C@@H](c3ccc(C(C)(C)C)cc3)C(C(=O)O)=CC[C@H]2c2ccc(Cl)cc2)cc1 | 102%
24 | COc1ccc([C@@H]2C[C@@H](SC3CCCC3)[C@H](C(=O)O)CN2S(=O)(=O)c2ccccc2C)cc1 | 98.2%
25 | COc1ccc([C@@H]2CC=C(C(=O)O)[C@H](c3ccc(Br)cc3)N2S(=O)(=O)c2ccc(C)cc2)cc1 | 72.1%
26 | CC(=O)C1=CC[C@@H](c2ccc(Cl)cc2)N(S(=O)(=O)c2ccc(C)cc2)C1 | 80.8%
27 | Cc1ccc([C@H]2C(C(=O)O)=CC[C@@H](c3cccs3)N2S(=O)(=O)c2ccc(C)cc2)cc1 | 73.4%
28 | Cc1ccc(S(=O)(=O)N2[C@@H](c3ccc(F)cc3)C(C(=O)O)=CC[C@H]2c2cccc(Br)c2)cc1 | 62.7%
29 | O=C(O)C1=CC[C@@H](c2ccc(Cl)cc2)N(S(=O)(=O)c2ccc(Cl)cc2)[C@H]1c1ccc(F)cc1 | 43.5%
30 | CCc1ccc([C@@H]2CC=C(C(=O)O)[C@H](c3cccc(C)c3)N2S(=O)(=O)c2ccc(C)cc2)cc1 | 60.5%
31 | CC(=O)C1=CC[C@@H](c2ccc(C)cc2)N(S(=O)(=O)c2ccccc2)C1 | 99%
32 | CC(=O)C1=CC[C@@H](c2ccc(C(C)C)cc2)N(S(=O)(=O)c2ccc(C)cc2)C1 | 105%
33 | CS(=O)(=O)N1[C@@H](c2cccc(Br)c2)C(C(=O)O)=CC[C@H]1c1ccccc1 | 63.5%
34 | Cc1ccc(S(=O)(=O)N2[C@@H](c3ccc(Br)cc3)C(C(=O)O)=CC[C@H]2c2ccccc2F)cc1 | 72.8%

Now from value to compound:

Row | Activity | SMILES
35 | 98.1% | Cc1ccc(S(=O)(=O)N2C[C@@H](C(=O)O)[C@H](SC3CCCC3)C[C@H]2c2ccc3c(c2)OCO3)cc1
36 | 73.1% | Cc1ccc([C@@H]2C[C@@H](SCC(C)C)[C@H](C(=O)O)CN2S(C)(=O)=O)cc1
37 | 99% | COc1ccc(S[C@@H]2C[C@@H](c3ccc(C)cc3)N(S(=O)(=O)c3ccccc3C)C[C@H]2C(=O)O)cc1
38 | 84.6% | CCS[C@@H]1C[C@@H](c2ccc(CC)cc2)N(S(=O)(=O)c2ccc(C)cc2)C[C@H]1C(=O)O
39 | 99.6% | Cc1ccc([C@@H]2C[C@@H](Sc3ccccc3)[C@H](C(=O)O)CN2S(C)(=O)=O)cc1
40 | 83.6% | CCCS[C@@H]1C[C@@H](c2ccc3c(c2)OCO3)N(S(=O)(=O)c2ccc(C)cc2)C[C@H]1C(=O)O
41 | 81.8% | CCCCCS[C@@H]1C[C@@H](c2cc(OC)c(OC)c(OC)c2)N(S(=O)(=O)c2ccc(C)cc2)C[C@H]1C(=O)O
42 | 60.3% | COc1cccc([C@@H]2C[C@@H](Sc3ccc(Cl)cc3)[C@H](C(=O)O)CN2S(=O)(=O)c2ccc(C)cc2)c1
43 | 91.1% | COc1ccc([C@@H]2C[C@@H](SCCC(C)C)[C@H](C(=O)O)CN2S(=O)(=O)c2ccc(C)cc2)cc1OC
44 | 68.9% | CCCCCCS[C@@H]1C[C@@H](c2cccc(Br)c2)N(S(=O)(=O)c2ccc(C)cc2)C[C@H]1C(=O)O
45 | 106% | C=CCS[C@@H]1C[C@@H](c2ccc(OC)cc2)N(S(=O)(=O)c2ccccc2)C[C@H]1C(=O)O
46 | 68.2% | Cc1ccc(S(=O)(=O)N2[C@@H](c3ccc(F)cc3)C(C(=O)O)=CC[C@H]2c2ccc3c(c2)OCO3)cc1
47 | 90% | Cc1ccc(S(=O)(=O)N2C[C@@H](C(=O)O)[C@H](SCCC(C)C)C[C@H]2c2ccccc2)cc1
48 | 92% | Cc1ccc([C@@H]2C[C@@H](Sc3ccccc3)[C@H](C(=O)O)CN2S(=O)(=O)c2ccccc2)cc1
49 | 97% | COc1ccc(S[C@@H]2C[C@@H](c3ccc(OC)cc3)N(S(=O)(=O)c3ccc(C)cc3)C[C@H]2C(=O)O)cc1
50 | 40.7% | COc1ccc([C@@H]2C[C@@H](SCc3ccc(Cl)cc3)[C@H](C(=O)O)CN2S(=O)(=O)c2ccc(C)cc2)cc1
51 | 64.5% | COc1cccc([C@@H]2C[C@@H](SCC(C)C)[C@H](C(=O)O)CN2S(=O)(=O)c2ccc(C)cc2)c1
52 | 73.9% | Cc1ccc(S(=O)(=O)N2[C@@H](c3cccc(Cl)c3)C(C(=O)O)=CC[C@H]2c2ccc3c(c2)OCO3)cc1
53 | 75.2% | Cc1ccc([C@@H]2C[C@@H](SCCC(C)C)[C@H](C(=O)O)CN2S(=O)(=O)c2ccccc2C)cc1
54 | 43.7% | CCc1ccc([C@@H]2C[C@@H](SCc3ccc(Cl)cc3)[C@H](C(=O)O)CN2S(=O)(=O)c2ccc(C)cc2)cc1
55 | 79.3% | Cc1ccc([C@@H]2C[C@@H](SCCC(C)C)[C@H](C(=O)O)CN2S(=O)(=O)c2ccccc2)cc1
56 | 81.5% | CCCCS[C@@H]1C[C@@H](c2ccc(Cl)cc2)N(S(=O)(=O)c2ccc(C)cc2)C[C@H]1C(=O)O

Row | Activity | SMILES
57 | 98.3% | COc1cc([C@@H]2C[C@@H](SCC(C)C)[C@H](C(=O)O)CN2S(=O)(=O)c2ccc(C)cc2)cc(OC)c1OC
58 | 87.5% | CCCCS[C@@H]1C[C@@H](c2ccc(Cl)cc2)N(S(=O)(=O)c2ccccc2C)C[C@H]1C(=O)O
59 | 50.7% | C=CCS[C@@H]1C[C@@H](c2ccc(C)cc2)N(S(=O)(=O)c2ccccc2)C[C@H]1C(=O)O
60 | 62% | COc1cccc([C@@H]2C[C@@H](SCCC(C)C)[C@H](C(=O)O)CN2S(=O)(=O)c2ccc(C)cc2)c1
61 | 93.3% | COc1ccc(S[C@@H]2C[C@@H](c3cccc(Cl)c3)N(S(=O)(=O)c3ccc(C)cc3)C[C@H]2C(=O)O)cc1
62 | 100% | COc1ccc(S[C@@H]2C[C@@H](c3ccc4c(c3)OCO4)N(S(=O)(=O)c3ccc(C)cc3)C[C@H]2C(=O)O)cc1
63 | 69.5% | Cc1ccc([C@@H]2C[C@@H](SCc3ccc(C(C)(C)C)cc3)[C@H](C(=O)O)CN2S(=O)(=O)c2ccccc2C)cc1
64 | 109% | CCCCCS[C@@H]1C[C@@H](c2ccc(OC)c(OC)c2)N(S(=O)(=O)c2ccc(C)cc2)C[C@H]1C(=O)O
65 | 43.5% | COc1cc([C@@H]2C[C@@H](SCCc3ccccc3)[C@H](C(=O)O)CN2S(=O)(=O)c2ccc(C)cc2)cc(OC)c1OC
66 | 71.3% | COc1cc([C@@H]2C[C@@H](SCc3ccc(C(C)(C)C)cc3)[C@H](C(=O)O)CN2S(=O)(=O)c2ccc(C)cc2)cc(OC)c1OC
67 | 82.7% | CCS[C@@H]1C[C@@H](c2cccc(Br)c2)N(S(=O)(=O)c2ccc(C)cc2)C[C@H]1C(=O)O
68 | 95% | CCS[C@@H]1C[C@@H](c2ccc(C)cc2)N(S(=O)(=O)c2ccccc2)C[C@H]1C(=O)O
69 | 94.5% | COc1ccc([C@@H]2C[C@@H](SC3CCCC3)[C@H](C(=O)O)CN2S(=O)(=O)c2ccccc2)cc1
70 | 91.6% | COc1ccc([C@@H]2C[C@@H](SCC(C)C)[C@H](C(=O)O)CN2S(=O)(=O)c2ccc(C)cc2)cc1OC
71 | 55.9% | Cc1ccc(S(=O)(=O)N2C[C@@H](C(=O)O)[C@H](SCc3ccc(C(C)(C)C)cc3)C[C@H]2c2ccccc2)cc1
72 | 61.4% | Cc1ccc(S(=O)(=O)N2C[C@@H](C(=O)O)[C@H](SCc3ccc(Cl)cc3)C[C@H]2c2ccccc2F)cc1
73 | 93.4% | Cc1ccc([C@@H]2C[C@@H](SCCC(C)C)[C@H](C(=O)O)CN2S(C)(=O)=O)cc1
74 | 72.8% | CCCS[C@@H]1C[C@@H](c2ccc(OC)cc2)N(S(=O)(=O)c2ccc(Cl)cc2)C[C@H]1C(=O)O
75 | 45.7% | CCc1ccc([C@@H]2C[C@@H](Sc3ccccc3)[C@H](C(=O)O)CN2S(=O)(=O)c2ccc(C)cc2)cc1
76 | 88.7% | Cc1ccc(S(=O)(=O)N2C[C@@H](C(=O)O)[C@H](SC3CCCC3)C[C@H]2c2cccc(Cl)c2)cc1
77 | 83.1% | CCCCS[C@@H]1C[C@@H](c2ccc(OC)cc2)N(S(=O)(=O)c2ccccc2)C[C@H]1C(=O)O
